For experiment [1], the system named is Anticarsia gemmatalis. The experiment in a line: Another test on a non-GM soybean variety (feeding damage). Format: in vivo. The conditions noted are these: 12.5 g a.i./ha.
The test system of experiment [2] is Anticarsia gemmatalis. The experiment is described as follows: whole plant or invertebrate. The conditions noted are these: in Glycine max, 48 h, read-out: mortality 2 DAA.
Experiment [3] concerns Anticarsia gemmatalis. The following applies: 12.5 g a.i./ha; 5 days after application; GMO soybean BMX Potencia RR.

The text below walks through data of patent US20150250174A1, “USE OF N-THIO-ANTHRANILAMIDE COMPOUNDS ON CULTIVATED PLANTS” (BASF SE, priority 2012, published 2015).

Structures are written as SMILES.

For orientation: mortality means the share of the test organisms that died. For `CCS(CC)=NC(=O)c1cc(Cl)cc(C)c1NC(=O)c1cc(C(F)(F)F)nn1-c1ncccc1Cl` [compound I-11, 2-(3-chloro-2-pyridyl)-N-[2-methyl-4-chloro-6-[(diethyl-λ^4-sulfanylidene)carbamoyl]phenyl]-5-(trifluoromethyl)pyrazole-3-carboxamide], in experiment [1], the “reduction in feeding damage compared to the untreated controls” value is 97%. In addition, in experiment [2], the mortality at 6.25 g/ha came to 83% and the mortality at 50 g/ha was 87%. Further, the “reduction of feeding damage compared to the untreated controls” value in experiment [3] is recorded as 100%.
